According to ChEMBL document CHEMBL1134012, “Synthesis of thiophene-2-carboxamidines containing 2-aminothiazoles and their biological evaluation as urokinase inhibitors” (Bioorg Med Chem Lett, 2001):

Target: Urokinase-type plasminogen activator (Homo sapiens, UniProt P00749)
Assay: In vitro inhibitory activity against Urokinase-type plasminogen activator (microPa)

| SMILES | Ki [µM] |
| --- | --- |
| CSc1sc(C(=N)N)cc1-c1csc(Nc2ccc(Oc3ccc(Cl)cc3)cc2)n1 | 0.11 |
| CSc1sc(C(=N)N)cc1-c1csc(NCCCc2ccccc2)n1 | 0.35 |
| CSc1sc(C(=N)N)cc1-c1csc(Nc2ccc(OCc3ccccc3)cc2)n1 | 0.18 |
| CSc1sc(C(=N)N)cc1-c1csc(Nc2ccc(C)cc2Br)n1 | 0.43 |
| CSc1sc(C(=N)N)cc1-c1csc(Nc2cccc3ccccc23)n1 | 0.5 |
| CSc1sc(C(=N)N)cc1-c1csc(Nc2ccccc2C(C)C)n1 | 0.7 |
| Cc1sc(C(=N)N)cc1-c1csc(Nc2ccc(Oc3ccccc3)cc2)n1 | 0.08 |
| COc1ccc(OC)c(Nc2nc(-c3cc(C(=N)N)sc3SC)cs2)c1 | 0.66 |
| CSc1sc(C(=N)N)cc1-c1csc(NCCN2CCOCC2)n1 | 1.4 |
| N=C(N)c1ccc(CS)s1 | 6 |
| CSc1sc(C(=N)N)cc1-c1csc(Nc2ccc(N(C)C)cc2)n1 | 0.31 |
| CSc1sc(C(=N)N)cc1-c1csc(Nc2ccc(Oc3ccc(C(F)(F)F)cn3)cc2)n1 | 0.91 |
| COc1cc(Nc2nc(-c3cc(C(=N)N)sc3SC)cs2)cc(OC)c1OC | 0.16 |
| CSc1sc(C(=N)N)cc1-c1csc(N)n1 | 3.9 |
| CSc1sc(C(=N)N)cc1-c1csc(NC(c2ccccc2)c2ccccc2)n1 | 1.18 |
| CSc1sc(C(=N)N)cc1-c1csc(N2CCN(c3ccccc3F)CC2)n1 | 3.06 |
| CSc1sc(C(=N)N)cc1-c1csc(Nc2ccc3c(c2)OCO3)n1 | 0.52 |

| SMILES | Ki [µM] |
| --- | --- |
| CSc1sc(C(=N)N)cc1-c1csc(Nc2cccc(C)c2C)n1 | 0.28 |
| CSc1sc(C(=N)N)cc1-c1csc(Nc2ccc(S(=O)(=O)N3CCCCC3)cc2)n1 | 0.4 |
| Cc1sc(C(=N)N)cc1-c1csc(N)n1 | 1.62 |
| CSc1sc(C(=N)N)cc1-c1csc(Nc2ccc(Nc3ccccc3)cc2)n1 | 0.07 |
| CSc1sc(C(=N)N)cc1-c1csc(Nc2ccccc2Br)n1 | 0.28 |
| CSc1sc(C(=N)N)cc1-c1csc(NCc2ccc(C)cc2)n1 | 0.64 |
| COc1ccc(Nc2nc(-c3cc(C(=N)N)sc3SC)cs2)cc1 | 0.28 |
| CSc1sc(C(=N)N)cc1-c1csc(Nc2cccc(OCC(N)=O)c2)n1 | 1.02 |
| CSc1sc(C(=N)N)cc1-c1csc(Nc2ccc(Cl)cc2C)n1 | 0.28 |
| CSc1sc(C(=N)N)cc1-c1csc(Nc2ccc(Oc3ccccc3)cc2)n1 | 0.06 |
| CSc1sc(C(=N)N)cc1-c1csc(Nc2ccc(Cc3ccccc3)cc2)n1 | 0.18 |
| CSc1sc(C(=N)N)cc1-c1csc(Nc2ccccc2Cl)n1 | 1.46 |
| CSc1sc(C(=N)N)cc1-c1csc(Nc2ccc(/N=N/c3ccccc3)cc2)n1 | 0.18 |
| CSc1sc(C(=N)N)cc1-c1csc(NCCN2CCCCC2)n1 | 1.6 |
| COc1cccc(Nc2nc(-c3cc(C(=N)N)sc3SC)cs2)c1 | 0.28 |
| CSc1sc(C(=N)N)cc1-c1csc(Nc2cccc(Cl)c2C)n1 | 0.44 |
| CSc1sc(C(=N)N)cc1-c1csc(Nc2c(Cl)cccc2Cl)n1 | 1.5 |
